In patent US7879814B2, “Methods and therapeutic compositions in the treatment of advanced cancer” (priority 2003, dated 2011):
Where two headings read alike, the source gives them in different places.

Legend:
[1] = test system: refractory stage IIIB/IV non-small cell lung cancer patients; details: cited from earlier work
[2] = test system: patients with advanced malignancies (solid tumors); assay: Phase I study of ATP by 8 hour intravenous infusion once weekly, out-patient (DMS #D0005): safety, tolerability, clinical efficacy; format: in vivo, human
Protocol: Adenosine 5′-triphosphate (ATP) is provided as a sterile solution in single use vials. […] Storage of the clinical solutions is at controlled refrigerated temperature (2-8° C.). […] The concentration of the final sterile solution is 8 mg/ml and is administered by continuous intravenous infusions using an Ivac or similar infusion device through venous access in a peripheral vein. If venous access is a problem, either a Hickman catheter or its equivalent or an Infusaport or its equivalent, are inserted to provide vascular access. […] All follow-up care is administered in hospital outpatient department or at the patient's home or clinic.
Title of the Study: “A Phase I Study of the Safety and Pharmacokinetics of Adenosine 5′-Triphosphate (ATP) When Administered by Intravenous Infusion on a Multiple Weekly Dose Schedule to Patients with Advanced Malignancies (Solid Tumors)”.
Nine qualified patients have been enrolled in the study as of Jan. 1, 2002; seven of which received the first 3 cycles of the study drug and are therefore evaluable for the primary endpoints. Two of the seven evaluable patients had advanced prostate cancer with bone metastases and one each had advanced mesothelioma, metastatic breast cancer, metastatic melanoma, metastatic colon cancer and renal cell carcinoma.

[3] = cited from earlier work; for whole blood ATP concentration higher than pretreatment value (average): 24 hours of infusion
[4] = test system: stage IIIB/IV non-small cell lung cancer patients; details: cited from earlier work
[5] = Pharmacokinetics of ATP on weeks (cycles) 1, 3 and 8 of the Phase I study; format: in vivo, human
Excerpt: Two of the seven evaluable patients had advanced prostate cancer with bone metastases and one each had advanced mesothelioma, metastatic breast cancer, metastatic melanoma, metastatic colon cancer and renal cell carcinoma.

[6] = test system: men with advanced, non-resectable cancer; details: cited from earlier work
[7] = 30-hours infusions, 20 up to 75 mcg/kg/min
[8] = week 1 pre-dose to week 13 follow-up
[9] = 50 or 65 mcg/kg/min, 96 hours once every 4 weeks, 15 patients
[10] = 50 or 65 mcg/kg/min, 96 hours once every 4 weeks
[11] = 50, 75 or 100 mcg/kg/min, 96 hr infusion once every 4 weeks

In the case of `Nc1ncnc2c1ncn2[C@@H]1O[C@H](COP(=O)(O)OP(=O)(O)OP(=O)(O)O)[C@@H](O)[C@H]1O` [ATP, Adenosine 5′-triphosphate], the “adverse events of grade 1 (mild)” value [1, 7] is listed as 81, the “adverse events of grade 2 (moderate)” value [1, 7] is listed as 5 and the “adverse events of grade 3 (severe)” value [1, 7] is listed as “none”. For the same compound, the “adverse events of grade 4 (life threatening)” value [1, 7] was 5, the “electrocardiograms in patients with chest discomfort” value ([1]; 30-hours infusions) was “did not exhibit changes suggestive of myocardial ischemia” and the “effects on body weight, voluntary muscle strength and Quality of Life domains” value ([1]; ATP plus best supportive care vs best supportive care only) was “beneficial effects”. The “resolution of side effects” value ([1]; after lowering the rate of ATP infusion) was “resolved within minutes”, the “grade 2 cardiac ischemia or grades 3 or 4 toxicity” value ([2]; 8 hour iv infusion once weekly, up to 100 mcg/kg/min) was “No grade 2 cardiac ischemia or grades 3 or 4 toxicity have been observed” and the appetite loss ([2]; all patients, screening to week 10 (follow-up), return to screening baseline at week 13) was “Decreases”. The “SGOT, SGPT and serum LDH” value ([2]; all patients, week 1 (pre-dose) to week 13 (follow-up)) was “Consistent decreases”, the “maximum allowable dose tolerated” value ([2]; continuous 8 hours iv infusion once weekly for eight weeks, seven of nine patients (the seven evaluable)) was 100 µg/kg/min and the “appetite and energy (subjective patient comments)” value ([2]; during the study, several patients) was “improved appetite and energy”. For the same compound, the “tolerability in terminal patients” value ([2]; patient 506) was “well tolerated”, the “Global Health Status of the QOL EORTC QLQ-C30” value ([2]; screening (week <1) to follow-up (week 10), decline at week 13 follow-up) was “Increases” and the “Skeletal Muscle Strength (voluntary)” value ([2]; screening (week <1) to week 8 (last infusion cycle)) was “Small increases”. For the same compound, the “Kamofsky Performance Status” value [2, 8] was “Small increases”, the body weight [2, 8] was “Stabilization” and the “whole blood ATP concentration higher than pretreatment value (average)” value ([3]; 50 mcg/kg/min) was 63%. The “whole blood ATP concentration higher than pretreatment value (average)” value ([3]; 75 mcg/kg/min) was 67%, the “whole blood ATP concentration higher than pretreatment value (average)” value ([3]; 100 mcg/kg/min) was 113% and the “course of blood ATP concentrations” value ([3]; interval between 24 and 96 hours of the infusion) was “relatively constant or slightly declined”. For the same compound, the “patients reporting severe (grade 3) adverse effects” value [4, 9] was “Six”, the “patients with life-threatening (grade 4) dyspnea” value [4, 9] was “two” and the “disease status after treatment” value [4, 10] was “the majority of patients exhibited stable disease”. For the same compound, the “hematologic, renal, hepatic, or gastrointestinal toxicity” value [4, 10] was “No significant”, the tumor shrinking [4, 10] was “no significant tumor shrinking was observed” and the “effects on weight gain, performance status and overall survival” value ([4]; non-small cell lung cancer patients) was “beneficial effects”. The “total blood ATP pools after infusion” value ([5]; at 24 hours) was “decline to baseline (time 0)”, the “average increases in Initial ATP Release Rates (from Red Blood Cells)” value ([5]; time 0 to 8 hours) was 200-400% and the “increases in total blood ATP pools (red blood cell pools)” value ([5]; time 0 to 8 hours (end of the infusions)) was 70-90%. The “share of all adverse events that were grade 1 or 2 (mild or moderate)” value [6, 11] was 79%, the “share of all adverse events that were grade 3 or 4 (severe or life-threatening)” value [6, 11] was 21% and the maximum tolerated dose ([6]; 96-hours infusions, patients with advanced cancers) was 50 µg/kg/min. The “events of grade 3 anxiety” value ([6]; 96 hr infusions) was “one”, the “events of grade 3 headache” value ([6]; 96 hr infusions) was 1 event and the “grade 3 or 4 events of chest pain” value ([6]; 96 hr infusions) was 5 events. The “grade 3 or 4 events of dizziness” value ([6]; 96 hr infusions) was 1 event, the “grade 3 or 4 events of dyspnea” value ([6]; 96 hr infusions) was 6 events and the “grade 3 or 4 events of hypotension” value ([6]; 96 hr infusions) was 1 event. The “grade 3 or 4 events of hypoxia” value ([6]; 96 hr infusions) was 2 events and the “grade 3 or 4 events of nausia/emesis” value ([6]; 96 hr infusions) was 2 events.
